Laboratory results: US20170119907A1, “Targeted Therapeutics” (MEDIVATION TECHNOLOGIES, INC., priority 2014, published 2017)

Legend:
[1] = tested on: human MSCs; experiment: Adherence of human MSCs to rabbit dorsal femoral condyle explants; assay type: cell-based; details: photomicrographs, FIG. 6A
[2] = tested on: Raji cells; experiment: Adherence of Raji cells to rabbit dorsal femoral condyle explants; assay type: cell-based; details: photomicrographs, FIG. 6B
[3] = tested on: Raji cells; experiment: Binding to Raji cells (fluorescence, Gel Logic system); assay type: cell-based; details: 10 μM in PBS; 1, 5, 15 or 30 minutes; 530 nm/600 nm; FIG. 2B
Procedure: 10^6 Raji cells were incubated with 10 μM Compound 4 or 10 μM Compound 20 in PBS or with PBS alone for 1, 5, 15 or 30 minutes. Cells were washed once in PBS and then the fluorescence of Compound 4 or Compound 20 was analyzed in a Gel Logic system with 530 nm/600 nm excitation/emission settings.

[4] = tested on: Raji cells; experiment: Binding to Raji cells (visual inspection of staining); assay type: cell-based; details: 10 μM in PBS, 30 min; FIG. 4B
Procedure: Raji cells were incubated in PBS without Compounds 4 or 20 or with 10 μM Compound 4 or 10 μM Compound 20 in PBS for 30 min and then washed twice with 1 mL PBS. Samples were visually inspected to determine staining

[5] = tested on: rabbit dorsal femoral condyle explants; experiment: Binding to rabbit dorsal femoral condyle explants (fluorescence staining); details: 100 μM in PBS, 30 min; 530/600 nm; FIGS. 5A, 5B
Procedure: Rabbit dorsal femoral condyle explants were incubated with PBS or 100 μM Compound 4 or Compound 20 in PBS for 30 min. Explants were washed twice in excess PBS. Staining of explants was determined using the 530/600 nm filter set on the Molecular Imaging Gel Logic system.

[6] = tested on: human MSCs / rabbit dorsal femoral condyle explants; experiment: Adherence of calcein-labeled human MSCs to rabbit dorsal femoral condyle explants; assay type: cell-based; details: MSCs incubated with compound (Compound 4: 5 μM or 10 μM), 30 min or 10 min; 475/535 nm; FIG. 6A
Procedure: Human MSCs were labeled with calcein for 30 min, washed with PBS, and incubated with Compound 4 (5 μM or 10 μM) or with PBS for 30 min. Rabbit dorsal femoral condyle explants were then incubated for 30 min with (1) the PBS-incubated, calcein-labeled MSCs, (2) the calcein-labeled MSCs incubated with 5 μM Compound 4, or (3) the calcein-labeled MSCs incubated with 10 μM Compound 4. Explants were washed twice with excess PBS, and the 475/535 nm filter set on the Molecular Imaging Gel Logic system was used to detect the binding of MSCs to the explants by detecting the calcein. In another experiment, the procedure was repeated with two batches of Compound 4, and with Compound 20, with an incubation time of 10 min instead of 30 min.

[7] = tested on: Raji cells / rabbit dorsal femoral condyle explants; experiment: Adherence of calcein-labeled Raji cells to rabbit dorsal femoral condyle explants; assay type: cell-based; details: cells incubated with 10 μM compound in PBS, 30 min; 475/535 nm; FIG. 6B
Procedure: Raji cells were labeled with calcein for 30 min, washed with PBS, and incubated with Compound 4 or Compound 20 (10 μM in PBS) or with PBS for 30 min. Cells were washed in PBS. Rabbit dorsal femoral condyle explants were then incubated for 30 min with (1) the PBS-incubated, calcein-labeled Raji cells or (2) the calcein-labeled Raji cells that had been incubated with 10 μM Compound 4 or Compound 20. Explants were washed twice with excess PBS, and the 475/535 nm filter set on the Molecular Imaging Gel Logic system was used to detect the binding of […] to the explants by detecting the calcein.

Compound | adherence of human MSCs to rabbit dorsal femoral condyle explants [1] | adherence of Raji cells to rabbit dorsal femoral condyle explants [2] | Binding to Raji cells (fluorescence) [3] | Binding to Raji cells (visual staining) [4] | Binding to rabbit dorsal femoral condyle explants (fluorescence) [5] | Adherence of calcein-labeled human MSCs to explants [6] | Adherence of calcein-labeled Raji cells to explants [7]
Cc1cc2nc3cc(C)c(NCCCCCCNC(=O)c4ccc(-c5ccc(C(=O)NCCCCCCNc6cc7c(cc6C)nc6cc(C)c(N)cc6[n+]7-c6ccccc6)cc5)cc4)cc3[n+](-c3ccccc3)c2cc1N.[Cl-].[Cl-] [Compound 20, (3-amino-7-{[6-({4-[4-({6-[(7-amino-5-chloranuide-2,8-dimethyl-5-phenyl-5λ^6,10-phenazin-5-ylium-3-yl)amino]hexyl}carbamoyl)phenyl]phenyl}formamido)hexyl]amino}-2,8-dimethyl-5-phenyl-5λ^6,10-phenazin-5-ylium-5-e)chloranuide] | promote adherence | promote adherence | bind to Raji cells | bind to Raji cells | strong fluorescence | promote adherence | promoted adherence
Cc1cc2nc3cc(C)c(NCCCCCCCCNc4cc5c(cc4C)nc4cc(C)c(N)cc4[n+]5-c4ccccc4)cc3[n+](-c3ccccc3)c2cc1N.[Cl-].[Cl-] [Compound 4, 7,7′-(octane-1,8-diylbis(azanediyl))bis(3-amino-2,8-dimethyl-5-phenylphenazin-5-ium) chloride] | promote adherence | promote adherence | bind to Raji cells | bind to Raji cells | strong fluorescence | promote adherence | promoted adherence
